Test results published in ChEMBL document CHEMBL2424595, “Substituted pyrrolo[2,3-d]pyrimidines as Cryptosporidium hominis thymidylate synthase inhibitors” (Bioorg Med Chem Lett, 2013).
Activity calls are given as the source filed them. The rule behind the calls is not given here.

What was measured:
[1] = Inhibition of Cryptosporidium hominis thymidylate synthase
[2] = tested on: Cryptosporidium hominis; assay: Inhibition of Cryptosporidium hominis DHFR
[3] = biological target: Thymidylate synthase (Homo sapiens) (UniProt P04818); assay: Inhibition of human thymidylate synthase
Sequence of Thymidylate synthase (Homo sapiens) (P04818 2-313 limits assumed): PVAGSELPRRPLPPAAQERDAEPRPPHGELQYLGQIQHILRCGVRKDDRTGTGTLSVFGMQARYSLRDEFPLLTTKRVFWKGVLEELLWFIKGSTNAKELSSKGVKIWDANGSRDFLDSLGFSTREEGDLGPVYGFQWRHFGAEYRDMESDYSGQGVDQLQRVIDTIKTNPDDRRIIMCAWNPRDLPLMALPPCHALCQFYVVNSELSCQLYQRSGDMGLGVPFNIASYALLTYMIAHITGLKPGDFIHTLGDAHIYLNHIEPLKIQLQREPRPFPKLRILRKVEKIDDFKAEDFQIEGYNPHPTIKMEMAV

IC50 [1]	Compound	inhibition [2]	inhibition [3]	Ki [1]
31100 nM	Nc1nc2[nH]cc(CCCCCc3ccc(C(=O)N[C@@H](CCC(=O)O)C(=O)O)cc3)c2c(=O)[nH]1			
2090 nM	Nc1nc2[nH]cc(CCc3ccc(C(=O)N[C@@H](CCC(=O)O)C(=O)O)cc3)c2c(=O)[nH]1 [PEMETREXED]			
2440 nM	Nc1nc2[nH]cc(CCCc3ccc(C(=O)N[C@@H](CCC(=O)O)C(=O)O)cc3)c2c(=O)[nH]1			

Second part, the compound before the results:

Compound	IC50 [1]	inhibition [2]	inhibition [3]	Ki [1]
Cc1[nH]c2nc(N)[nH]c(=O)c2c1Sc1ccc(C(=O)N[C@@H](CCC(=O)O)C(=O)O)c(Cl)c1	10 nM	Active	Active	8.83 nM
Nc1nc2[nH]cc(Cc3ccc(C(=O)N[C@@H](CCC(=O)O)C(=O)O)s3)c2c(=O)[nH]1	30 nM	Active	Active	
Nc1nc2[nH]cc(Cc3ccc(C(=O)N[C@@H](CCC(=O)O)C(=O)O)cc3)c2c(=O)[nH]1	380 nM			
